Measurements taken from patent US7214824B2, “Substituted N-sulfonylaminobenzyl-2-phenoxyacetamide compounds as VR1 receptor agonists” (Pfizer Inc., priority 2004, dated 2007).

CC(C)(C)c1ccc(OCC(=O)NCc2ccc(NS(C)(=O)=O)cc2)cc1 [Example 9, 2-(4-tert-Butylphenoxy)-N-{4-[(methylsulfonyl)amino]benzyl}acetamide]
melting point: 163.1 °C

CC(C)(C)c1ccc(OCC(=O)NCc2ccc(NS(C)(=O)=O)c(O)c2)cc1 [Example 12, 2-(4-tert-Butylphenoxy) -N-{3-hydroxy-4-[(methylsulfonyl)amino]benzyl}acetamide]
melting point: 112.3 °C
